In patent US20250361230A1, “LATS Inhibitors and Uses Thereof” (The USA, as Represented by the Secretary, Dept. of Heath …, priority 2022, published 2025):

Legend:
Assay type in all cases: biochemical
[1] = biological target: T1, LATS1 (Homo sapiens, UniProt O95835); assay: RBC HotSpot kinase assay (33P-ATP, P81 filter-binding), LATS1; conditions: Table 28, biochemical kinase assay; read-out: LATS1 IC50
T1 sequence (O95835 1-1130): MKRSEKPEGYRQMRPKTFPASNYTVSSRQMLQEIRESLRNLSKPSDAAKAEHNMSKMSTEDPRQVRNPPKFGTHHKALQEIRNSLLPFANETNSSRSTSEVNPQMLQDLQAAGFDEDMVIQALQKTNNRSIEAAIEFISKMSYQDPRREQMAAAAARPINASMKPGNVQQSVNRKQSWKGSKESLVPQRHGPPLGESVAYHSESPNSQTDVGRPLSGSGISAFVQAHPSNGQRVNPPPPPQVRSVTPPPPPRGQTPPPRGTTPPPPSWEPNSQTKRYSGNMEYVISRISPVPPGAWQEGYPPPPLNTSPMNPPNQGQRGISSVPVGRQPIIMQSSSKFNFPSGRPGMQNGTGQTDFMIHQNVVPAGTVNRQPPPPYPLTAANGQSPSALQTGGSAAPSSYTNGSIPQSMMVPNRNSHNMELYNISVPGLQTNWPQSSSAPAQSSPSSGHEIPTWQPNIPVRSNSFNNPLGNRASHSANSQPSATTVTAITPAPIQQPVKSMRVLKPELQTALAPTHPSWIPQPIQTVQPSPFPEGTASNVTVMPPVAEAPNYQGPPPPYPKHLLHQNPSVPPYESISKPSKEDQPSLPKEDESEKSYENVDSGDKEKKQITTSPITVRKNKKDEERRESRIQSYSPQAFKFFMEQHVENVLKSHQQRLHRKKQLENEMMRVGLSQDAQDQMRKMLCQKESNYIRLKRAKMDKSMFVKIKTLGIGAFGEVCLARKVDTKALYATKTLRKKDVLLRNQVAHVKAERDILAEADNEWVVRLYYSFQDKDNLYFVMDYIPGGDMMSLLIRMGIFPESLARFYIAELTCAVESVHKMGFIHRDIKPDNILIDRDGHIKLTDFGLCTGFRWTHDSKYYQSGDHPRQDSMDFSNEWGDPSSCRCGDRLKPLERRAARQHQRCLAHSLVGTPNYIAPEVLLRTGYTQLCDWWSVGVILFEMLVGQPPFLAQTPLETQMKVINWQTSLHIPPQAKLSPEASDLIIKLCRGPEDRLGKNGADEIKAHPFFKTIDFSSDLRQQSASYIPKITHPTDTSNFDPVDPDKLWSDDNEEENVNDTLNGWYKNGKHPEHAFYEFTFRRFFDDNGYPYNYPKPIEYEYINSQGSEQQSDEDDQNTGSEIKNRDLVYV
Summary of the method: (§1)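 Kinase in Hepes pH 7.5 buffer with Mg2+, EGTA, Brij35, BSA, vanadate, DTT and 1% DMSO, plus required cofactors and substrate, was preincubated 20 min at room temperature with compound. Reaction was started with 33P-ATP and run 2 h, then detected by P81 filter binding. IC50 (nM) came from 10-point singlet curves.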

[2] = biological target: T2, LATS2 (Homo sapiens, UniProt Q9NRM7); assay: RBC HotSpot kinase assay (33P-ATP, P81 filter-binding), LATS2; conditions: Table 28, biochemical kinase assay; read-out: LATS2 IC50
T2 sequence (Q9NRM7 1-1088): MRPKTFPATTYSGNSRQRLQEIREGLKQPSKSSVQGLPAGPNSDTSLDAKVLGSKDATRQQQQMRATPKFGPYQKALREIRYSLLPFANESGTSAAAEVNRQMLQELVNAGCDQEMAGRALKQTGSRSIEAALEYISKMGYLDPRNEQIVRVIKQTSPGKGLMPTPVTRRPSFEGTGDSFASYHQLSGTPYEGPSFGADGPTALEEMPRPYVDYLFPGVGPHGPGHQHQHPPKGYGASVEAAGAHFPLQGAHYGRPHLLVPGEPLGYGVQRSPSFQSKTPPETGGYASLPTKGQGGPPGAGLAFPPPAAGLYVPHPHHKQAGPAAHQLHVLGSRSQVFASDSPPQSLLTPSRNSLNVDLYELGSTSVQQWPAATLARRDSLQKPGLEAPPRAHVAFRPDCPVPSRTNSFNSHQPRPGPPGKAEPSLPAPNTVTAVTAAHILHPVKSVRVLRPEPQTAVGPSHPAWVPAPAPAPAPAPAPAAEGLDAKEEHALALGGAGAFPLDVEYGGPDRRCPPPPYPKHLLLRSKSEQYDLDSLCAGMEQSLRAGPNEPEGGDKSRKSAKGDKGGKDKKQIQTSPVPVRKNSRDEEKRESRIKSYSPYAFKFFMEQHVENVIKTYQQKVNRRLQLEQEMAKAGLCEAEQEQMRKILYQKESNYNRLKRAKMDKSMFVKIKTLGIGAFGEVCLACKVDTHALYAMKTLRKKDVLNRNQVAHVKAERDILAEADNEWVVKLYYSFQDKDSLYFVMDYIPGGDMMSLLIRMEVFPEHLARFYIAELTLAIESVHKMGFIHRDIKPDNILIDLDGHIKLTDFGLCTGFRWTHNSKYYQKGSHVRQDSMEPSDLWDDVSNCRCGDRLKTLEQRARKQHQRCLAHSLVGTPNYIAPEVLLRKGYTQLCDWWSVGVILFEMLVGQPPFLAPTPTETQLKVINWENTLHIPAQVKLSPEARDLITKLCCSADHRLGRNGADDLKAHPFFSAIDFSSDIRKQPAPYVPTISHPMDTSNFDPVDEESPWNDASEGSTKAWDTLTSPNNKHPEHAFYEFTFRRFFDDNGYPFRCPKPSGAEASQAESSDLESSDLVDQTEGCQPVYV
Summary of the method: as §1

[3] = biological target: AKT (Homo sapiens, UniProt P31749); assay: RBC HotSpot kinase assay (33P-ATP, P81 filter-binding), AKT; conditions: Table 28, biochemical kinase assay; read-out: AKT IC50
AKT, sequence (P31749 whole entry): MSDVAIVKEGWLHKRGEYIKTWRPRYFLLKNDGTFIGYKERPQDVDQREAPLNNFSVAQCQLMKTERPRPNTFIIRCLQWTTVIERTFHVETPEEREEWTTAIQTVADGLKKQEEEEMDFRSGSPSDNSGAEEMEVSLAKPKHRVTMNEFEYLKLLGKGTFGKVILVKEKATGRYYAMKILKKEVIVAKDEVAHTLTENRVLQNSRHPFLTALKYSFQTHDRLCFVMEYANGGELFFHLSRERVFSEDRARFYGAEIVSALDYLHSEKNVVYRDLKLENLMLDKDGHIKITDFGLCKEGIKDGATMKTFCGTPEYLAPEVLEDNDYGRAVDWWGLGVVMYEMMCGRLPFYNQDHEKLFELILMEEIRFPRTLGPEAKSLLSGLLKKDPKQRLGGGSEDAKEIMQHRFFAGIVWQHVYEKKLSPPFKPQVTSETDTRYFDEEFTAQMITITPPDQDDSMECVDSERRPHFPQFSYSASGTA
Summary of the method: as §1

SMILES	IC50 [1]	IC50 [2]	IC50 [3]
CC(=O)N1C[C@@H](C)[C@](O)(c2c(C)cc(-c3ccnc4[nH]cc(F)c34)cc2F)[C@@H](C)C1 [Compound 95, 1-((3S,5R)-4-(2-fluoro-4-(3-fluoro-1H-pyrrolo[2,3-b]pyridin-4-yl)-6-methylphenyl)-4-hydroxy-3,5-dimethylpiperidin-1-yl)ethan-1-one]	6.9 nM	4.8 nM	2620 nM
OC1(c2ccc(-c3ccnc4[nH]cc(F)c34)cc2Cl)CCN2CCCC2C1 (stereo not drawn) [Compound 96, 7-(2-chloro-4-(3-fluoro-1H-pyrrolo[2,3-b]pyridin-4-yl)phenyl)octahydroindolizin-7-ol]	17 nM	17.9 nM	771 nM
OC1(c2ccc(-c3ccnc4[nH]cc(F)c34)cc2Cl)CCNCC1 [Compound 97, 4-(2-chloro-4-(3-fluoro-1H-pyrrolo[2,3-b]pyridin-4-yl)phenyl)piperidin-4-ol]	11.4 nM	42.8 nM	712 nM
CC1CC(O)(c2ccc(-c3ccnc4[nH]cc(F)c34)cc2Cl)CCN1 (stereo not drawn) [Compound 98, 4-(2-chloro-4-(3-fluoro-1H-pyrrolo[2,3-b]pyridin-4-yl)phenyl)-2-methylpiperidin-4-ol]	24 nM	37 nM	383 nM
CC1CNCCC1(O)c1ccc(-c2ccnc3[nH]cc(F)c23)cc1Cl (stereo not drawn) [Compound 99, 4-(2-chloro-4-(3-fluoro-1H-pyrrolo[2,3-b]pyridin-4-yl)phenyl)-3-methylpiperidin-4-ol]	10.6 nM	6.2 nM	219 nM
CC1CC(O)(c2ccc(-c3ccnc4[nH]cc(F)c34)cc2Cl)CC(C)N1 (stereo not drawn) [Compound 100, 4-(2-chloro-4-(3-fluoro-1H-pyrrolo[2,3-b]pyridin-4-yl)phenyl)-2,6-dimethylpiperidin-4-ol]	230 nM	195 nM	1900 nM
COC(=O)c1c[nH]c2nccc(-c3ccc(C4(O)CCNCC4)c(Cl)c3)c12 [Compound 101, methyl 4-(3-chloro-4-(4-hydroxypiperidin-4-yl)phenyl)-1H-pyrrolo[2,3-b]pyridine-3-carboxylate]	7.1 nM	70.8 nM	1950 nM
OC1(c2ccc(-c3ccnc4[nH]cc(F)c34)cc2Cl)C2CNCC1C2 (stereo not drawn) [Compound 102, 6-(2-chloro-4-(3-fluoro-1H-pyrrolo[2,3-b]pyridin-4-yl)phenyl)-3-azabicyclo[3.1.1]heptan-6-ol]	82 nM	224 nM	4870 nM
O[C@]1(c2ccc(-c3ccnc4[nH]cc(F)c34)cc2Cl)[C@@H]2CC[C@H]1CNC2 [Compound 103, (1R,5S,8s)-8-(2-chloro-4-(3-fluoro-1H-pyrrolo[2,3-b]pyridin-4-yl)phenyl)-3-azabicyclo[3.2.1]octan-8-ol]	43.9 nM	162 nM	1720 nM
OC1(c2ccc(-c3ccnc4[nH]cc(F)c34)cc2)CNC1 [Compound 116, 3-(4-(3-fluoro-1H-pyrrolo[2,3-b]pyridin-4-yl)phenyl)azetidin-3-ol]	9.2 nM	16.7 nM	468 nM

Next, values leading:

IC50 [1]	IC50 [2]	IC50 [3]	SMILES
145 nM	326 nM	6580 nM	Cc1nc(-c2ccnc3[nH]cc(F)c23)ccc1C1(O)CCNCC1 [Compound 104, 4-(6-(3-fluoro-1H-pyrrolo[2,3-b]pyridin-4-yl)-2-methylpyridin-3-yl)piperidin-4-ol]
16 nM	14 nM	828 nM	OC1(c2ccc(-c3ccnc4[nH]cc(F)c34)cc2Cl)CNC1 [Compound 105, 3-(2-chloro-4-(3-fluoro-1H-pyrrolo[2,3-b]pyridin-4-yl)phenyl)azetidin-3-ol]
18.2 nM	110 nM	885 nM	COC(=O)c1c[nH]c2nccc(-c3ccc(C4(O)CNC4)c(Cl)c3)c12 [Compound 106, methyl 4-(3-chloro-4-(3-hydroxyazetidin-3-yl)phenyl)-1H-pyrrolo[2,3-b]pyridine-3-carboxylate]
473 nM	661 nM	> 10000 nM	Cc1nc(-c2ccnc3[nH]cc(F)c23)ccc1C1(O)CC2(CNC2)C1 [Compound 107, 6-(6-(3-fluoro-1H-pyrrolo[2,3-b]pyridin-4-yl)-2-methylpyridin-3-yl)-2-azaspiro[3.3]heptan-6-ol]
17.4 nM	24.8 nM	1270 nM	Cc1cc(-c2ccnc3[nH]cc(F)c23)cc(F)c1C1(O)CC2(CNC2)C1 [Compound 108, 6-(2-fluoro-4-(3-fluoro-1H-pyrrolo[2,3-b]pyridin-4-yl)-6-methylphenyl)-2-azaspiro[3.3]heptan-6-ol]
46 nM	61 nM	2980 nM	OC1(c2c(F)cc(-c3ccnc4[nH]cc(F)c34)cc2F)CC2(CNC2)C1 [Compound 109, 6-(2,6-difluoro-4-(3-fluoro-1H-pyrrolo[2,3-b]pyridin-4-yl)phenyl)-2-azaspiro[3.3]heptan-6-ol]
9.2 nM	18 nM	2330 nM	COC(=O)c1c[nH]c2nccc(-c3ccc(C4(O)CCNCC4)cc3)c12 [Compound 112, methyl 4-(4-(4-hydroxypiperidin-4-yl)phenyl)-1H-pyrrolo[2,3-b]pyridine-3-carboxylate]
12.4 nM	65.5 nM	1060 nM	COC(=O)c1c[nH]c2nccc(-c3ccc(C4(O)C[C@H]5CC[C@@H](C4)N5)cc3)c12 (stereo partly drawn) [Compound 113, methyl 4-(4-((1R,5S)-3-hydroxy-8-azabicyclo[3.2.1]octan-3-yl)phenyl)-1H-pyrrolo[2,3-b]pyridine-3-carboxylate]
23 nM	19 nM	390 nM	OC1(c2ccc(-c3ccnc4[nH]cc(F)c34)cc2)C[C@H]2CC[C@@H](C1)N2 (stereo partly drawn) [Compound 114, (1R,5S)-3-(4-(3-fluoro-1H-pyrrolo[2,3-b]pyridin-4-yl)phenyl)-8-azabicyclo[3.2.1]octan-3-ol]
7.2 nM	10 nM	176 nM	OC1(c2ccc(-c3ccnc4[nH]ccc34)cc2)C[C@H]2CC[C@@H](C1)N2 (stereo partly drawn) [Compound 115, (1R,5S)-3-(4-(1H-pyrrolo[2,3-b]pyridin-4-yl)phenyl)-8-azabicyclo[3.2.1]octan-3-ol]
4.2 nM	3.2 nM	240 nM	OC1(c2ccc(-c3ccnc4[nH]cc(Br)c34)cc2)CCNCC1 [Compound 117, 4-(4-(3-bromo-1H-pyrrolo[2,3-b]pyridin-4-yl)phenyl)piperidin-4-ol]
